# According to PMC10892818, “An Antiherpesviral Host-Directed Strategy Based on CDK7 Covalently Binding Drugs: Target-Selective, Picomolar-Dose, Cross-Virus Reactivity” (Pharmaceutics, 2024):
# Columns and labels:
# [1] = Solubility (SolRank); type: physicochemical; details: pH 7.4
# [2] = PAMPA; type: in vitro ADME; details: pH 7.4
# [3] = Caco-2 permeability assay; type: in vitro ADME; details: human
# [4] = type: in vitro ADME
# [5] = type: in vitro ADME; remark: listed apart in the source
# [6] = Plasma protein binding, mouse; type: in vitro ADME; details: read-out: Plasma protein binding (% bound) mouse (converted)
# [7] = Plasma protein binding, human; type: in vitro ADME; details: read-out: Plasma protein binding (% bound) human (converted)
# [8] = in vivo
# Procedure: Later, this drug served as the parental compound for the generation of novel covalently binding CDK7-directed warheads (Figure 2A, panels a–h). To reveal LDC4297, a chemical library was designed in silico for the targeting of kinases and was applied for screening against human CDK7–cyclin H–MAT1 by the use of in vitro kinase assays. […] In particular, a kinome-wide analysis with 333 individual kinases was performed to assess compound selectivity in vitro.
# (A) Chemical linkage of an acceptor for the Michael 1,4 addition reaction was performed to generate QRS compounds 6, 7, and 9. Through the covalent binding of host target CDK7, a block of virus-supportive functions was achieved, and further details on this antiviral strategy were described elsewhere (a,b; c,d, this study, and Yu et al., in preparation; d–f; f–h). (B) Determination of in vitro eADME parameters (early […]-distribution-metabilism-excretion) and pharmacokinetics (PK) parameters, including mean plasma concentrations in vivo (male CD-1® mice).
# [9] = test system: HCMV AD169-GFP; design: method as in PMID 25624324; details: read-out: antiviral EC50 value (HCMV); cited from earlier work
# [10] = test system: human CDK7–cyclin H–MAT1; design: method as in PMID 25624324; details: cited from earlier work
# [11] = target: T1, CDK7–cyclin H–MAT1 (Homo sapiens, UniProt P50613); design: method as in PMID 25624324; details: kinome-wide panel of 333 kinases; cited from earlier work
# T1 construct: purchased Invitrogen PR6749B
# T1 sequence (P50613 whole entry): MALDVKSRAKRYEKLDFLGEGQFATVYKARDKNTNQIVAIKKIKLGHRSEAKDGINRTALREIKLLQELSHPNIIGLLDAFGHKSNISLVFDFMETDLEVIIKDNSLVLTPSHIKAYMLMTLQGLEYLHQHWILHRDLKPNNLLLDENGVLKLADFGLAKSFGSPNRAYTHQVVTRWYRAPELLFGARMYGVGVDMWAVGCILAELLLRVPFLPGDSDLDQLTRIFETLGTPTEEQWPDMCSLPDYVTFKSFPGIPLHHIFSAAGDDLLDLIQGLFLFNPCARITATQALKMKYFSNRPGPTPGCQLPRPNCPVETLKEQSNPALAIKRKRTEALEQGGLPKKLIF
# T1 sequence (P51946 whole entry partner): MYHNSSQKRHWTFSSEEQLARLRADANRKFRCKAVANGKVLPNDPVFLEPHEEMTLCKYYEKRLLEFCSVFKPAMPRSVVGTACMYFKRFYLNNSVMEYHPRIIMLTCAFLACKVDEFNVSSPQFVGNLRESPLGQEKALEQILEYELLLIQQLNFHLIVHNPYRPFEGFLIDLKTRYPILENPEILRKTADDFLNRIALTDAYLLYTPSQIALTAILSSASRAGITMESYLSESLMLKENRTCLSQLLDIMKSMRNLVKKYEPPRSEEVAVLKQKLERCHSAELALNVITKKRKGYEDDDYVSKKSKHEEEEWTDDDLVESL
# T1 sequence (P51948 whole entry partner): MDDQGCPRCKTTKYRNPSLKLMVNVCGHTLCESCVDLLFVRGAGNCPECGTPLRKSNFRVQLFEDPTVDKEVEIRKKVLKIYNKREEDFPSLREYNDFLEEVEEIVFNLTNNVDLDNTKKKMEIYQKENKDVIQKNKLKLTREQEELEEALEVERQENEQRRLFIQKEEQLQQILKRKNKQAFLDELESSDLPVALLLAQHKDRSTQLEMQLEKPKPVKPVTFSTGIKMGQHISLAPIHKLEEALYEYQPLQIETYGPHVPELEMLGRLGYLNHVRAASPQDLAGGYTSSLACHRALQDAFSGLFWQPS
# [12] = test system: HCMV-encoded vCDK/pUL97; design: method as in PMID 37591314; details: cited from earlier work
# [13] = male, CD-1, mouse, in vivo, po, 100 mg/kg
smiles,measurement,setting,value
CC(C)c1cnn2c(NCc3ccccc3-n3cccn3)nc(OC3CCCNC3)nc12 (centres unmarked) [LDC4297],solubility,[1],373 µM
same,PAMPA (% Flux),[2],76.25 % Flux
same,Papp A→B,[3]; A→B,15.4 ×10⁻⁶ cm/s
same,efflux ratio,"[3]; efflux ratio, read-out: Caco-2 permeability B→A / A→B",1.57
same,Plasma stability (% remain) mouse,[4],100.0 % remain
same,Plasma stability (% remain) human,[5],91.6 % remain
same,fraction unbound,[6],0.0951
same,fraction unbound,[7],0.142
same,AUC(0-inf),[8]; [13],3620 ng·h/mL
same,AUC(0-t),[8]; [13],3520 ng·h/mL
same,Cmax,[8]; [13],1300 ng/mL
same,Tmax,[8]; [13],0.5 h
same,bioavailability,[8]; [13],97.7%
same,half-life,[8]; [13],1.6 h
same,tz,[8]; [13],8 h
same,concentration at 8 h,"[8]; male, CD-1, mouse, in vivo, po, 100 mg/kg, Cz, mouse 100 mg/kg p.o.",43.2 ng/mL
same,concentration at 0 min,"[8]; male, CD-1, mouse, in vivo, po, 100 mg/kg, Mean plasma concentration, mouse 100 mg/kg p.o., sampling time 0 min",0 ng/mL
same,concentration at 30 min,"[8]; male, CD-1, mouse, in vivo, po, 100 mg/kg, Mean plasma concentration, mouse 100 mg/kg p.o., sampling time 30 min",> 1200 ng/mL
same,concentration at 90 min,"[8]; male, CD-1, mouse, in vivo, po, 100 mg/kg, Mean plasma concentration, mouse 100 mg/kg p.o., sampling time 90 min",713 ± 411 ng/mL
same,concentration at 240 min,"[8]; male, CD-1, mouse, in vivo, po, 100 mg/kg, Mean plasma concentration, mouse 100 mg/kg p.o., sampling time 240 min",373 ± 108 ng/mL
same,concentration at 480 min,"[8]; male, CD-1, mouse, in vivo, po, 100 mg/kg, Mean plasma concentration, mouse 100 mg/kg p.o., sampling time 480 min",43.2 ± 44 ng/mL
same,Mean plasma concentration,"[8]; mouse 100 mg/kg p.o., sampling time 30 min",1297.6 ± 678.0 ng/mL
same,EC50,[9],24.5 ± 1.3 nM
same,IC50,[10],< 5 nM
same,residual activity in the presence of LDC4297,[11],2%
same,secondary targeting activity against vCDK/pUL97,[12],lack of a secondary targeting activity
